In ChEMBL document CHEMBL3885861, “Open TG-GATES”:

Species on record: Rattus norvegicus
Assay: Open TG-GATES - Regimen: Daily Repeat
Type: toxicity, organism-based, Sprague-Dawley
Parameters: regimen Daily Repeat, gender Male, age 6 weeks
Settings: in vivo, po, 200 mg/kg, route gavage, dose level Middle; for APTT / Bas / Eos / Fbg / Hb / Ht / Lym / MCH / MCHC / MCV / Mono / Neu / PT / Plat / RBC / Ret / WBC: tissue Blood; for KIDNEY_L / KIDNEY_R / KIDNEY_TOTAL: tissue Kidney; for LIVER: tissue Liver; for A/G / ALP / ALT / AST / BUN / CRE / Ca / Cl / DBIL / GLC / IP / K / LDH / Na / PL / RALB / TBIL / TC / TG / TP / gamma-GTP: tissue Plasma

What does the source list for `CCOC(=O)[C@H](CCc1ccccc1)N[C@@H](C)C(=O)N1CCC[C@H]1C(=O)O`?
TERMINAL_BW (72 h, time 3 day): 240.7 g; APTT (72 h, time 3 day): 15.8 s; Bas (72 h, time 3 day): 0%; Eos (72 h, time 3 day): 1%; Fbg (72 h, time 3 day): 231 mg/dL; Hb (72 h, time 3 day): 13.2 g/dL; Ht (72 h, time 3 day): 40.1%; Lym (72 h, time 3 day): 78%; MCH (72 h, time 3 day): 21.9 pg; MCHC (72 h, time 3 day): 32.9%; MCV (72 h, time 3 day): 66.6 fL; Mono (72 h, time 3 day): 8.4%; Neu (72 h, time 3 day): 12.6%; PT (72 h, time 3 day): 11.8 s; Plat (72 h, time 3 day): 114.3 x10_4/uL; RBC (72 h, time 3 day): 601.8 x10_4/ul; Ret (72 h, time 3 day): 5.9%; WBC (72 h, time 3 day): 85.6 x10_2/uL; KIDNEY_L (72 h, time 3 day): 1.1 g; KIDNEY_R (72 h, time 3 day): 1.1 g; KIDNEY_TOTAL (72 h, time 3 day): 2.2 g; LIVER (72 h, time 3 day): 11.8 g; A/G (72 h, time 3 day): 2; ALP (72 h, time 3 day): 912.6 IU/L; ALT (72 h, time 3 day): 35 IU/L; AST (72 h, time 3 day): 65.2 IU/L; BUN (72 h, time 3 day): 19.4 mg/dL; CRE (72 h, time 3 day): 0.5 mg/dL; Ca (72 h, time 3 day): 11 mg/dL; Cl (72 h, time 3 day): 104.4 meq/L; DBIL (72 h, time 3 day): 0.03 mg/dL; GLC (72 h, time 3 day): 193 mg/dL; IP (72 h, time 3 day): 8.7 mg/dL; K (72 h, time 3 day): 4.3 meq/L; LDH (72 h, time 3 day): 98.2 IU/L; Na (72 h, time 3 day): 140.8 meq/L; PL (72 h, time 3 day): 146 mg/dL; RALB (72 h, time 3 day): 4 g/dL; TBIL (72 h, time 3 day): 0.4 mg/dL; TC (72 h, time 3 day): 81.4 mg/dL; TG (72 h, time 3 day): 81.2 mg/dL; TP (72 h, time 3 day): 6 g/dL; gamma-GTP (72 h, time 3 day): 1.4 IU/L; TERMINAL_BW ([…], time 7 day): 259.9 g; TERMINAL_BW ([…], time 14 day): 304.7 g; TERMINAL_BW ([…], time 28 day): 336 g; APTT ([…], time 7 day): 16.8 s; Bas ([…], time 7 day): 0%; Eos ([…], time 7 day): 1%; Fbg ([…], time 7 day): 228 mg/dL; Hb ([…], time 7 day): 13.3 g/dL; Ht ([…], time 7 day): 40.2%; Lym ([…], time 7 day): 81.8%; MCH ([…], time 7 day): 20.4 pg; MCHC ([…], time 7 day): 33.1%; MCV ([…], time 7 day): 61.7 fL; Mono ([…], time 7 day): 6.2%; Neu ([…], time 7 day): 10.8%; PT ([…], time 7 day): 11.6 s; Plat ([…], time 7 day): 123.3 x10_4/uL; RBC ([…], time 7 day): 651.6 x10_4/ul; Ret ([…], time 7 day): 4.1%; WBC ([…], time 7 day): 108.2 x10_2/uL; APTT ([…], time 14 day): 16.2 s; Bas ([…], time 14 day): 0%; Eos ([…], time 14 day): 1.2%; Fbg ([…], time 14 day): 242.2 mg/dL; Hb ([…], time 14 day): 13.4 g/dL; Ht ([…], time 14 day): 40.5%; Lym ([…], time 14 day): 81%; MCH ([…], time 14 day): 20.2 pg; MCHC ([…], time 14 day): 33.2%; MCV ([…], time 14 day): 60.8 fL; Mono ([…], time 14 day): 6%; Neu ([…], time 14 day): 12%; PT ([…], time 14 day): 11.5 s; Plat ([…], time 14 day): 113 x10_4/uL; RBC ([…], time 14 day): 666.8 x10_4/ul; Ret ([…], time 14 day): 3.6%; WBC ([…], time 14 day): 116.4 x10_2/uL; APTT ([…], time 28 day): 15.5 s; Bas ([…], time 28 day): 0%; Eos ([…], time 28 day): 1%; Fbg ([…], time 28 day): 240.2 mg/dL; Hb ([…], time 28 day): 14.3 g/dL; Ht ([…], time 28 day): 42.9%; Lym ([…], time 28 day): 87.4%; MCH ([…], time 28 day): 19 pg; MCHC ([…], time 28 day): 33.3%; MCV ([…], time 28 day): 57.1 fL; Mono ([…], time 28 day): 4.2%; Neu ([…], time 28 day): 7.4%; PT ([…], time 28 day): 11.8 s; Plat ([…], time 28 day): 101.7 x10_4/uL; RBC ([…], time 28 day): 752.2 x10_4/ul; Ret ([…], time 28 day): 3.4%; WBC ([…], time 28 day): 172.8 x10_2/uL; KIDNEY_L ([…], time 7 day): 1.2 g; KIDNEY_R ([…], time 7 day): 1.2 g; KIDNEY_TOTAL ([…], time 7 day): 2.4 g; KIDNEY_L ([…], time 14 day): 1.3 g; KIDNEY_R ([…], time 14 day): 1.3 g; KIDNEY_TOTAL ([…], time 14 day): 2.6 g; KIDNEY_L ([…], time 28 day): 1.4 g; KIDNEY_R ([…], time 28 day): 1.4 g; KIDNEY_TOTAL ([…], time 28 day): 2.9 g; LIVER ([…], time 7 day): 11.6 g; LIVER ([…], time 14 day): 12.7 g; LIVER ([…], time 28 day): 12.8 g; A/G ([…], time 7 day): 2.2; ALP ([…], time 7 day): 881.8 IU/L; ALT ([…], time 7 day): 27.4 IU/L; AST ([…], time 7 day): 56.8 IU/L; BUN ([…], time 7 day): 24 mg/dL; CRE ([…], time 7 day): 0.5 mg/dL; Ca ([…], time 7 day): 10.3 mg/dL; Cl ([…], time 7 day): 104.4 meq/L; DBIL ([…], time 7 day): 0.002 mg/dL; GLC ([…], time 7 day): 207.4 mg/dL; IP ([…], time 7 day): 8.4 mg/dL; K ([…], time 7 day): 4.7 meq/L; LDH ([…], time 7 day): 88.8 IU/L; Na ([…], time 7 day): 136.6 meq/L; PL ([…], time 7 day): 141.6 mg/dL; RALB ([…], time 7 day): 3.9 g/dL; TBIL ([…], time 7 day): 0.4 mg/dL; TC ([…], time 7 day): 74.6 mg/dL; TG ([…], time 7 day): 81.8 mg/dL; TP ([…], time 7 day): 5.7 g/dL; gamma-GTP ([…], time 7 day): 1.4 IU/L; A/G ([…], time 14 day): 1.9; ALP ([…], time 14 day): 760.4 IU/L; ALT ([…], time 14 day): 28.4 IU/L; AST ([…], time 14 day): 57.2 IU/L; BUN ([…], time 14 day): 27.6 mg/dL; CRE ([…], time 14 day): 0.6 mg/dL; Ca ([…], time 14 day): 10.8 mg/dL; Cl ([…], time 14 day): 105.6 meq/L; DBIL ([…], time 14 day): 0.008 mg/dL; GLC ([…], time 14 day): 194.8 mg/dL; IP ([…], time 14 day): 8.3 mg/dL; K ([…], time 14 day): 4.6 meq/L; LDH ([…], time 14 day): 86.2 IU/L; Na ([…], time 14 day): 138 meq/L; PL ([…], time 14 day): 154.8 mg/dL; RALB ([…], time 14 day): 3.9 g/dL; TBIL ([…], time 14 day): 0.3 mg/dL; TC ([…], time 14 day): 83 mg/dL; TG ([…], time 14 day): 83.2 mg/dL; TP ([…], time 14 day): 6.1 g/dL; gamma-GTP ([…], time 14 day): 1.2 IU/L; A/G ([…], time 28 day): 1.8; ALP ([…], time 28 day): 617.8 IU/L; ALT ([…], time 28 day): 24 IU/L; AST ([…], time 28 day): 55.4 IU/L; BUN ([…], time 28 day): 45.2 mg/dL; CRE ([…], time 28 day): 0.7 mg/dL; Ca ([…], time 28 day): 10.2 mg/dL; Cl ([…], time 28 day): 105.8 meq/L; DBIL ([…], time 28 day): 0.078 mg/dL; GLC ([…], time 28 day): 206 mg/dL; IP ([…], time 28 day): 7.5 mg/dL; K ([…], time 28 day): 4.8 meq/L; LDH ([…], time 28 day): 62.4 IU/L; Na ([…], time 28 day): 137.6 meq/L; PL ([…], time 28 day): 145.6 mg/dL; RALB ([…], time 28 day): 3.8 g/dL; TBIL ([…], time 28 day): 0.3 mg/dL; TC ([…], time 28 day): 77 mg/dL; TG ([…], time 28 day): 87.2 mg/dL; TP ([…], time 28 day): 5.9 g/dL; gamma-GTP ([…], time 28 day): 2.2 IU/L
